This is an account of results in ChEMBL document CHEMBL4024704, “Idiopathic Pulmonary Fibrosis: Current Status, Recent Progress, and Emerging Targets” (J Med Chem, 2017).

Structures are written as SMILES.

In series [1] the target is T1, Interleukin-8 receptors, CXCR1/CXCR2 (Homo sapiens) (UniProt P25025+P25024). Nature of the series: Inhibition of GROalpha interaction with CXCR1/CXCR2 in human PMN leukocytes assessed as reduction in leukocyte migration after 5 days in presence of Diff-Quick staining by matrigel based microscopic analysis. The settings on record: concentration not given here. It is filed as cell-based.

Series [2] addresses T1, Interleukin-8 receptors, CXCR1/CXCR2 (Homo sapiens). Description: Inhibition of IL-8 interaction with CXCR1/CXCR2 in human PMN leukocytes assessed as reduction in leukocyte migration after 5 days in presence of Diff-Quick staining by matrigel based microscopic analysis. The settings on record: concentration not given here. It is filed as cell-based.
The subject of series [3] is Rattus norvegicus. Description: Anti-inflammatory activity in Sprague-Dawley rat assessed as inhibition of LPS-induced TNFalpha production administered via oral gavage for 1 hr followed by LPS challenge measured after 1.5 hrs by ELISA. It is filed as functional. For orientation: In an ELISA, binding on a coated surface is turned into a signal by an enzyme label.
Series [4] in a line: Inhibition of TGF-beta (unknown origin). Also noted: species or system Homo sapiens.
Series [5] can be described thus: Inhibition of Wnt/beta-catenin signaling in human NL-20 cells by beta-catenin-based reporter assay. The note with it: NL20. It counts as cell-based.
The test system of series [6] is A549. Nature of the series: Antiproliferative activity against human A549 cells after 72 hrs by MTT assay. It counts as functional, cell-based. The settings on record: A549, 72 h. A general note: Tetrazolium dyes change colour on reduction, which living cells bring about.
The target in series [7] is T1, Interleukin-8 receptors, CXCR1/CXCR2 (Homo sapiens). Nature of the series: Inhibition of […] interaction with CXCR1/CXCR2 in human PMN leukocytes assessed as reduction in leukocyte migration after 5 days in presence of Diff-Quick staining by matrigel based microscopic analysis. It counts as cell-based. The note with it: concentration not given here.
The target of series [8] is Disintegrin and metalloproteinase domain-containing protein 17 (Homo sapiens, UniProt P78536). Nature of the series: Inhibition of recombinant TACE catalytic domain (unknown origin) using pro-TNFalpha peptide Abz-LAQAVRSSSR-Dpa as substrate preincubated for 10 mins followed by substrate addition measured after 10 mins by FRET assay.
Chain of Disintegrin and metalloproteinase domain-containing protein 17 (P78536 whole entry, the tested form may be a part): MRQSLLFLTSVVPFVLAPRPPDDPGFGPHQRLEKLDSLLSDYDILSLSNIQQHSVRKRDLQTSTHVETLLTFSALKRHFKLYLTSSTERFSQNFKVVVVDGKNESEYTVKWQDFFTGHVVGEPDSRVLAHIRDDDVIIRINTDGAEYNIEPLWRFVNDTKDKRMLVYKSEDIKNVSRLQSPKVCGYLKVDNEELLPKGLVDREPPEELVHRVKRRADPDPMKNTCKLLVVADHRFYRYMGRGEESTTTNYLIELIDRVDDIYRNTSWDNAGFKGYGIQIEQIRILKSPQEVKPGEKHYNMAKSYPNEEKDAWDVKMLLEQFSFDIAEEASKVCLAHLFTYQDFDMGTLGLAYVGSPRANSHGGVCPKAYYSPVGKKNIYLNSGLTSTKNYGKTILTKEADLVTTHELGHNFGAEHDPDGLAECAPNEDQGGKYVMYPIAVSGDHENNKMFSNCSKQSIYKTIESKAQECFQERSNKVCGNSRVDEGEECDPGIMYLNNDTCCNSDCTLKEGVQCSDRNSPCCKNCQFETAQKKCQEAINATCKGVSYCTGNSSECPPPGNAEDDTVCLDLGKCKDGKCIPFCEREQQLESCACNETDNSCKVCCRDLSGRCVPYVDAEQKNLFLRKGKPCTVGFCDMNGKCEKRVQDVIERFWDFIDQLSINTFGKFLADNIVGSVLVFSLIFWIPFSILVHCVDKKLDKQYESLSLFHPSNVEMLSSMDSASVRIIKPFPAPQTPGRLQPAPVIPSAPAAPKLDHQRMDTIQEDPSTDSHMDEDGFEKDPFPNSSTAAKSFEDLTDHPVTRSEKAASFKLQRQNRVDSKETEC
In series [9] the test system is NIH3T3. Description: Anticancer activity against mouse NIH/3T3 cells after 24 hrs by cell titer 96 aqueous one solution based assay. The settings on record: NIH3T3, 24 h.
The test system of series [10] is A549. Nature of the series: Anticancer activity against human A549 cells after 24 hrs by cell titer 96 aqueous one solution based assay. It is filed as functional. The note with it: A549, 24 h.
In series [11] the test system is NIH3T3. Description: Antiproliferative activity against mouse NIH/3T3 cells after 72 hrs by MTT assay. It counts as cell-based. The settings on record: NIH3T3, 72 h.
Series [12] has as its target T2, Mitogen-activated protein kinase kinase kinase 5 (Homo sapiens, UniProt Q99683).
T2 sequence (Q99683 whole entry): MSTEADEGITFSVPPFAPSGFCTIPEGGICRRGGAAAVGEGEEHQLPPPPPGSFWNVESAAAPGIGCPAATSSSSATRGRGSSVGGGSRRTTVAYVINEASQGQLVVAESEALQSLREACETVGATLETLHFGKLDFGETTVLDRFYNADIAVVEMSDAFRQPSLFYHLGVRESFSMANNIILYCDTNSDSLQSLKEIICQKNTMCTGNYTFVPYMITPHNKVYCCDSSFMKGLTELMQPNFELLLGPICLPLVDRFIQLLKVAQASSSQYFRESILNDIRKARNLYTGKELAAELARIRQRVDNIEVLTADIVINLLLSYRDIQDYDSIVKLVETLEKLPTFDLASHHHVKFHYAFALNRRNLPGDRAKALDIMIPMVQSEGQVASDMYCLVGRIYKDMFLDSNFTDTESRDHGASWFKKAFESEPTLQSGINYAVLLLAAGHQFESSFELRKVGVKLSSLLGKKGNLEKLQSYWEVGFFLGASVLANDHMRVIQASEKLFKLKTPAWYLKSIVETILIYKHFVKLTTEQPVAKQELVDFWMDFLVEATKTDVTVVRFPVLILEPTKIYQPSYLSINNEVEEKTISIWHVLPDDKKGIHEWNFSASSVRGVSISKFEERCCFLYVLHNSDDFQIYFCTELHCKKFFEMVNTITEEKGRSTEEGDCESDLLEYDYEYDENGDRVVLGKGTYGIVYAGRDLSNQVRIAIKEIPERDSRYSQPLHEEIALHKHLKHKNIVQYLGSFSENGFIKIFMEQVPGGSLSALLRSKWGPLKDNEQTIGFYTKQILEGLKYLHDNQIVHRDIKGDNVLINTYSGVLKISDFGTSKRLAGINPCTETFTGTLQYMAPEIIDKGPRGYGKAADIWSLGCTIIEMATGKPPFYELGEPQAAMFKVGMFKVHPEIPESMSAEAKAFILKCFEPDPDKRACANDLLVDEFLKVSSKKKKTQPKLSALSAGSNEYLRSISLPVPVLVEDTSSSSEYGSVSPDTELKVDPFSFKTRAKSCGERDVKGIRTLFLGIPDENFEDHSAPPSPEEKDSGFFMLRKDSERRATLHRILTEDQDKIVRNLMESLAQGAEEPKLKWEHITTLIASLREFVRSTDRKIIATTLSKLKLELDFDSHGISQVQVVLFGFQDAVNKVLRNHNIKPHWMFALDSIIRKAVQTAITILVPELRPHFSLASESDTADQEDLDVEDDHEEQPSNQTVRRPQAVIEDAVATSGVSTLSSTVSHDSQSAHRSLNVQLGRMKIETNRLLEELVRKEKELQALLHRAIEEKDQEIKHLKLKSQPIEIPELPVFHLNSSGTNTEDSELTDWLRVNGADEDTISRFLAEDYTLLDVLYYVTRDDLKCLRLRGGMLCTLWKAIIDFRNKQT
Nature of the series: Inhibition of recombinant human ASK1 using STK3 peptide as substrate incubated for 30 mins followed by ATP addition measured for 3 hrs by TR-FRET assay. In general terms: In TR-FRET formats the signal depends on donor and acceptor labels being close together.

Series [13] deals with NIH3T3. Description: Antiproliferative activity against mouse NIH/3T3 cells. It is filed as cell-based.
A further series addresses Cathepsin B (Homo sapiens, UniProt P07858). Description: Inhibition of human liver cathepsin B using Boc-Leu-Arg-Arg-AMC as substrate preincubated for 15 mins followed by substrate addition measured after 30 mins by spectrofluorimetric analysis.
The test system of series [14] is Rattus norvegicus. Nature of the series: Antifibrotic activity in […] rat bleomycin-induced pulmonary fibrosis model assessed as hydroxyproline content in lung at 0.04 g/day administered via oral gavage by spectrophotometric analysis. It is filed as functional.
Series [15] is described as follows: Elimination half life in healthy human at 801 mg. The settings on record: in vivo, read-out: beta t1/2 (converted). It counts as ADME.
Series [16] has as its system NIH3T3. Nature of the series: Antiproliferative activity against mouse NIH/3T3 cells by MTT assay. It is filed as cell-based.

`CCC(=O)c1cccc(CC(=O)O)c1Cl`: the inhibition came to 27% in series [1] and 67% in series [2].

As for `CNC(=O)C1c2nc(C3CCC(NC(=O)COC)CC3)nc(-c3cc(C)ccc3OC3CC3)c2NC1C` (stereo not given), the “inhibition (INH)” value with Rattus norvegicus [3] is 7 - 99%.

On to `CNC(=O)c1cnccc1Nc1nc(-c2cc(Cl)ccc2F)nc2ncccc12`, for which the midpoint of inhibition in [4], the IC50, lay at 0.07 µM.

Consider `Cc1cc(CC(C)C)ccc1CC(=O)NS(C)(=O)=O`, for which the inhibition in series [1] was determined as 0%; in [2], 67%.

`CN(C)c1cncc(-c2cnc3[nH]nc(-c4nc5c(-c6cccc(F)c6)cncc5[nH]4)c3c2)c1` had an IC50 in [5] of 0.44 to 1.9 µM.

`CNC(=O)C1c2nc(C3CCC(NC(=O)COC)CC3)nc(-c3cc(C(F)(F)F)ccc3OC3CC3)c2NC1C` (stereo not given): in the series on Rattus norvegicus [3], the “inhibition (INH)” value was 7 - 99%.

In turn, `Cc1cccc(NCc2ccc(=O)n(Cc3ccccc3)c2)c1` registered a half-maximal inhibitory concentration (IC50) in the series with A549 [6] of 130 µM.

As for `C[C@@H](C(=O)NCCN1CCCC1)c1ccc(OS(=O)(=O)C(F)(F)F)cc1`, the inhibition in series [1] was 0%; in series [7], 65%; in series [2], 52%.

In the case of `Cc1cc(COc2ccc(S(=O)(=O)N[C@@H]3CCC[C@@H]3C(=O)NO)cc2)c2ccccc2n1`, the IC50 in series [8] came to 0.0006 µM.

In the series on NIH3T3 [9], `O=c1ccc(COc2ccccc2)cn1-c1ccc(Cl)cc1` had a concentration for half-maximal inhibition (IC50) of 14 µM.

Molecule `Cc1cccc(-n2cc(CNc3ccccc3)ccc2=O)c1` had a concentration for half-maximal inhibition (IC50) in the series with A549 [10] of 130 µM.

In turn, `Nc1cncc(-c2cnc3[nH]nc(-c4nc5c(-c6cccc(F)c6)cncc5[nH]4)c3c2)c1` yielded a half-inhibitory concentration (IC50) in series [5] of 0.175 µM.

Consider `CN(C)c1cncc(-c2cnc3[nH]nc(-c4nc5c(-c6cccs6)cncc5[nH]4)c3c2)c1`, for which half-maximal inhibition in [5] (IC50) was put at 1.09 µM.

Consider `COc1ccc(Cn2cc(COc3ccc(F)cc3)ccc2=O)cc1`, for which the IC50 in the series with NIH3T3 [11] stood at 55 µM; with A549 [6], 20 µM.

Take `CCC(=O)NC1CCC(c2nc(-c3cc(C(F)(F)F)ccc3OC3CC3)c3c(n2)C(C(=O)NC)C(C)N3)CC1` (stereo not given): the “inhibition (INH)” value with Rattus norvegicus [3] is 7 - 99%.

On to `CC(n1cnnc1-c1nc(NC(=O)c2cc(-n3cnc(C4CC4)c3)c(N3CCCCC3)cn2)cs1)C(F)(F)F` (stereo not given), for which the IC50 in series [12] is 0.0007 µM.

Take `CC(C)Nc1cncc(-c2cnc3[nH]nc(-c4nc5c(-c6cncc(F)c6)cncc5[nH]4)c3c2)c1`: the IC50 in series [5] came to 0.067 µM.

`C[C@@H](C(=O)NCCCN1CCCC1)c1ccc(OS(=O)(=O)C(F)(F)F)cc1`: the inhibition came out at 0% in series [1], 67% in series [7] and 51% in series [2].

Regarding `CO[C@H]1O[C@H](CNc2ccccc2Cn2cc(C(F)(F)F)ccc2=O)[C@@H](O)[C@H](O)[C@H]1O`, it took 170 µM to reach half-maximal inhibition in the series on NIH3T3 [13] (IC50).

On Cathepsin B, `COc1ccc2c(O[C@@H]3C[C@H](C(=O)N[C@@H](CC4CC4)C(=O)C(=O)NC4CC4)N(C[C@@H](NC(=O)NC(C)(C)C)C(C)(C)C)C3)nccc2c1` had an IC50 of 0.027 µM.

Regarding `CCOc1ccc(-n2c(C)cc(C)c(C#N)c2=O)cc1`, the Activity with Rattus norvegicus [14] worked out at 119.55 µmol.

With `CNC(=O)C1c2nc(C3CCC(NC(C)=O)CC3)nc(-c3cc(C(F)(F)F)ccc3OC3CC3)c2NC1C` (stereo not given), in the series on Rattus norvegicus [3], the “inhibition (INH)” value is listed as 7 - 99%.

In the case of `Cc1ccc(=O)n(-c2ccccc2)c1` [PIRFENIDONE], in series [15], the half-life was 3 h. Also, in the series with Rattus norvegicus [14], the Activity is 158.39 µmol. The molecule also yielded an IC50 with NIH3T3 [11] of 454 µM.

In the case of `Cc1ccc(=O)n(-c2cccc(F)c2)c1` [FLUOROFENIDONE], the half-maximal inhibitory concentration (IC50) in the series on NIH3T3 [16] is 4200 µM.

As to `CNC(=O)C1c2nc(C3CCC(NC(=O)COC)CC3)nc(-c3ccc(F)cc3OC3CC3)c2NC1C` (stereo not given), the “inhibition (INH)” value with Rattus norvegicus [3] is recorded as 7 - 99%.

In turn, `O=C(O)c1cc2c(O)cccc2n(-c2ccc(F)cc2Cl)c1=O` showed an IC50 with NIH3T3 [16] of 90 µM.

As for `O=c1ccc(CNc2ccccc2F)cn1Cc1ccccc1`, 3 µM corresponded to half-maximal inhibition in the series with NIH3T3 [11] (IC50).

In the series on NIH3T3 [16], `O=c1ccc2c(n1-c1ccc(Br)cc1)CCCC2O` (stereo not given) gave a 50% inhibitory concentration (IC50) of 300 µM.

As to `CCOc1ccc(-n2c(N)c(C#N)c(-c3ccccc3)c(C#N)c2=O)cc1`, the Activity in the series on Rattus norvegicus [14] was found to be 48.55 µmol.

For the molecule `NC(=O)c1cnccc1Nc1nc(-c2cc(Cl)ccc2F)nc2ncccc12`, inhibition in series [4] was half-maximal at 0.02 µM (IC50).

For the molecule `Cc1cccc(-n2cc(COc3ccccc3)ccc2=O)c1`, the half-maximal inhibitory concentration (IC50) in the series on NIH3T3 [9] stood at 16 µM.

Broadly, the inhibition is the percentage by which the read-out fell short of the control. Usually IC50 stands for the concentration that inhibits the measured activity by half.
